GI50 and TGI data for seven compounds are collected here from PubChem BioAssay (NCI).

Several values for one entry are separate records, joined by “and”; a condition that tells them apart may be missing. Equal values may be shown once.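 In this assay, cells in 96-well plates receive the compound at five concentrations for 48 hours. Endpoints are linearly interpolated between the surrounding concentrations. GI50 marks 50% less growth. The concentration for full growth arrest is given as TGI.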 Bounds are passed on as bounds.

Experiment in all cases: DTP human tumour cell line panel, 48 h
The test system of assay [1] is NCI-H23 lung.
In assay [2] the test system is A498 renal.
For assay [3], the system named is LOX IMVI melanoma.
Assay [4] has as its system NCI/ADR-RES ovarian.
The test system of assay [5] is M14 melanoma.
The test system of assay [6] is OVCAR-3 ovarian.
Assay [7] concerns CAKI-1 renal.
The subject of assay [8] is MALME-3M melanoma.
In assay [9] the test system is MOLT-4 leukemia.
Assay [10] has as its system SNB-19 CNS.

Consider `CN(C)C1CCN(C(=O)c2ccc(NC(=O)Nc3ccc(-c4nc(N5CCOCC5)nc(N5CCOCC5)n4)cc3)cc2)CC1`, for which the 50% growth inhibitory concentration (GI50) in [1] was 0.0368 µM and 0.0297 µM and 0.0732 µM; in assay [2], 39.1 nM and 30 nM and 5.66 nM; in assay [3], < 10 nM and 11.1 nM and 29.6 nM; in [4] it was 29.4 µM and 4.87 µM; in assay [5] it was 0.23 µM and 0.144 µM and 0.0298 µM; in assay [6], 0.0148 µM and 0.0139 µM and 0.0282 µM. The GI50 in assay [7] is 4.16 µM and 1.49 µM and 0.496 µM; in [8], 13.8 nM and 38.2 nM and 8.99 nM; in [9], 31.1 nM and 18 nM and 77.2 nM; in assay [10], < 0.0123 µM and 0.0131 µM and 0.0174 µM. Further, the total growth inhibition concentration (TGI) was 15.7 µM and 2.5 µM and 2.3 µM in assay [1]; 282 nM and 154 nM and 78.8 nM in assay [2]; above 100 µM in [4]; 5.24 µM and 2.5 µM and 1.17 µM in [5]; 0.603 µM and 0.366 µM and 0.935 µM in assay [6]; 0.053 µM and 0.24 µM and 0.054 µM in [8]. For the same compound, the TGI in assay [10] is 4.23 µM and 2.5 µM and 0.875 µM.
`O=P([O-])(O)OP(=O)([O-])O.[NH-][C@@H]1CCCC[C@H]1[NH-].[Pt+4]`: the GI50 in assay [1] is 18.4 µM and 12.3 µM; in assay [2], > 100000 nM and 18300 nM; in assay [3], 15600 nM and 6860 nM; in assay [4], 38.4 µM and 5.2 µM; in [5], 38.9 µM and 14.8 µM; in assay [6], 23.8 µM and 11.2 µM. Besides, the GI50 in assay [7] was 6.41 µM and 5.25 µM; in [8], 11700 nM and 2980 nM; in assay [9], 5900 nM and 3290 nM; in [10] it was 47.9 µM and 14.9 µM. In addition, the TGI was > 100 µM and 91.1 µM in assay [1]; above 100000 nM in assay [2]; above 100 µM in [3]; above 100 µM in assay [4]; above 100 µM in assay [5]; > 100 µM and 29.4 µM in [6]. In addition, the TGI was > 100 µM and 41.7 µM in assay [7]; > 100 µM and 29 µM in assay [8]; above 100 µM in assay [9]; above 100 µM in assay [10].
For the compound `CCCCCCCCCCC(O)C1CCC(C(O)CCC(O)C2CCC(CCCCCCC[C@H](O)CC3=C[C@@H](C)OC3=O)O2)O1` (some centres not stated), the total growth inhibition concentration (TGI) in assay [1] is 69.4 µM; in assay [2], above 82000 nM; in assay [3], above 100 µM; in [4], 8.23 µM; in [5] it was above 100 µM; in [6] it was 45 µM. Besides, the TGI is above 100 µM in [7], above 100 µM in [8], above 100 µM in assay [9] and above 88.3 µM in [10]. The GI50 in assay [3] was 2240 nM.
Regarding `NC(=N\N=C/c1cccc([N+](=O)[O-])c1)/C(N)=N\N=C/c1cccc([N+](=O)[O-])c1`, the GI50 was above 100 µM in assay [1]; above 100000 nM in assay [2]; above 100000 nM in assay [3]; above 100 µM in assay [4]; above 100 µM in [5]; above 100 µM in [6]. The GI50 in assay [7] is above 100 µM; in assay [8], above 100000 nM; in assay [9], above 100000 nM; in assay [10] it was above 100 µM. Moreover, the TGI in [1] was above 100 µM; in assay [2], above 100000 nM; in assay [3], above 100 µM; in [4], above 100 µM; in assay [5], above 100 µM; in assay [6], above 100 µM. Moreover, the TGI in assay [7], in [8], in [9] and in assay [10] was above 100 µM each time.
Take `C=CCN1C=CC(=O)[C@H](O[Si](C)(C)C(C)(C)C)[C@@H]1/C=C/c1ccccc1`: the GI50 in assay [1] is 13.8 µM; in assay [2] it was 13200 nM; in [3], 13100 nM; in [4], 13.3 µM; in [5] it was 13.2 µM; in [6], 14 µM. Also, the GI50 is 15.7 µM in assay [7], 17300 nM in [8], 10700 nM in [9] and 20.7 µM in assay [10]. In addition, the concentration for total growth inhibition (TGI) in [1] was determined as 27.9 µM; in [2], 26100 nM; in assay [3] it was 26.4 µM; in assay [4], 26.8 µM; in assay [5] it was 27.5 µM; in [6], 27.8 µM. The TGI in [7] was 32.7 µM; in assay [8], 34.3 µM; in assay [9], 28.8 µM; in assay [10], 35.3 µM.
As to `COc1cc2c(cc1OCCCCCCN1CCN(c3ncnc4ccccc34)CC1)N=CC1CCCN1C2=O` (configuration not stated), the GI50 was 0.204 µM in assay [1]; 150 nM in assay [2]; 31.9 nM in assay [3]; 0.899 µM in assay [4]; 0.171 µM in assay [5]; 0.0336 µM in [6]. For the same compound, the GI50 in assay [7] was 0.0331 µM; in [8], 158 nM; in [9], 37.8 nM; in [10] it was 0.208 µM. The TGI in [1] came out at 0.677 µM; in [2], 344 nM; in assay [3] it was 1 µM; in [5], 1.22 µM; in [6], 0.088 µM; in assay [7] it was 0.436 µM. Also, the TGI in assay [8] was found to be 0.376 µM; in assay [9], 0.203 µM; in [10], 3.54 µM.
Consider `O=C(Nc1cc[c]([Sb](=[O])([OH])[OH])cc1)c1ccccc1`, for which the GI50 in assay [1] was above 100 µM; in [2], above 100000 nM; in [3] it was above 100000 nM; in [4], above 100 µM; in assay [5], above 100 µM; in [6], above 100 µM. The GI50 is above 100 µM in [7], above 100000 nM in [8], above 100000 nM in assay [9] and above 100 µM in [10]. Besides, the TGI is above 100 µM in assay [1]; above 100000 nM in [2]; above 100 µM in assay [3]; above 100 µM in assay [4]; above 100 µM in [5]; above 100 µM in [6]. Besides, the TGI in assay [7], in [8], in assay [9] and in assay [10] was above 100 µM each time.

In general, GI50 refers to the concentration that inhibits growth by half. Broadly, the TGI is the concentration giving total growth inhibition.
